According to US5486541A (Teva Pharmaceutical Industries, Ltd., priority 1991, dated 1996):
“Also recorded” adds a separate entry of the source. Read-outs that look alike come from different tables or passages of the source.

Assays:
[1] = tested on: blood pressure response to tyramine; assay: Tyramine Potentiation in Vivo (blood pressure response to tyramine); design: species or system rat; details: for Potentiation of blood pressure response to tyramine: compound 5 mg/kg orally, tyramine 20 mg/kg orally, ratio of areas under the curve of blood pressure
Protocol: On the previous day a tail artery cannulation was performed to enable direct blood pressure measurements. On the experimental day the cannulae were connected to pressure transducers. The animals were unrestrained and were kept in a glass sided open top tank during the pressure measurements. […] The desired compound was administered 30 minutes after the last dose of tyramine. Tyramine was administered again, in increasing doses, as described above, one hour after the desired compound was administered. […] The tyramine potentiating effect was calculated as a ratio between the areas under the curve of blood pressure measured with tyramine alone (20 mg/kg) and that measured after administration of the desired compounds and tyramine.

MAO-B [2] = molecular target: T1, MAO-B (Rattus norvegicus, UniProt P19643); assay: biochemical; format: biochemical; details: for IC50: 20 min preincubation at 37° C., PEA 20 μM, read-out: IC50 for Inhibition of MAO-B in Brain Homogenates
T1 sequence (P19643 1-520): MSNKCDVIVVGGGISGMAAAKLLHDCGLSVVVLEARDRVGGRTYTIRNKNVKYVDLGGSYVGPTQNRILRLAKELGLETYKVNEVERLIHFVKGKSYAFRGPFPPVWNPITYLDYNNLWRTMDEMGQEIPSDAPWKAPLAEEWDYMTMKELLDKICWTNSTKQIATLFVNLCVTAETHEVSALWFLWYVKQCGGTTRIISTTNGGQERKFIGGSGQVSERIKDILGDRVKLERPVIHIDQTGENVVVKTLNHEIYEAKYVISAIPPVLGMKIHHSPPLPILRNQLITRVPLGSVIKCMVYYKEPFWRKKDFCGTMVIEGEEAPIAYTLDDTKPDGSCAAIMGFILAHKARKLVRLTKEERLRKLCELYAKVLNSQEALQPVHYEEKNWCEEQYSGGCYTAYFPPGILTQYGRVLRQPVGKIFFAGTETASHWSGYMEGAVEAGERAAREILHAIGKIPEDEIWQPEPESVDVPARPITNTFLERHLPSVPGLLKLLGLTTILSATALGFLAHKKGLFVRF

MAO-A [3] = molecular target: T2, MAO-A (Rattus norvegicus, UniProt P21396); assay: biochemical; details: rat brain homogenate; 20 min preincubation at 37° C.; 5-HT 1 mM; read-out: IC50 for Inhibition of MAO-A in Brain Homogenates
T2 sequence (P21396 1-526): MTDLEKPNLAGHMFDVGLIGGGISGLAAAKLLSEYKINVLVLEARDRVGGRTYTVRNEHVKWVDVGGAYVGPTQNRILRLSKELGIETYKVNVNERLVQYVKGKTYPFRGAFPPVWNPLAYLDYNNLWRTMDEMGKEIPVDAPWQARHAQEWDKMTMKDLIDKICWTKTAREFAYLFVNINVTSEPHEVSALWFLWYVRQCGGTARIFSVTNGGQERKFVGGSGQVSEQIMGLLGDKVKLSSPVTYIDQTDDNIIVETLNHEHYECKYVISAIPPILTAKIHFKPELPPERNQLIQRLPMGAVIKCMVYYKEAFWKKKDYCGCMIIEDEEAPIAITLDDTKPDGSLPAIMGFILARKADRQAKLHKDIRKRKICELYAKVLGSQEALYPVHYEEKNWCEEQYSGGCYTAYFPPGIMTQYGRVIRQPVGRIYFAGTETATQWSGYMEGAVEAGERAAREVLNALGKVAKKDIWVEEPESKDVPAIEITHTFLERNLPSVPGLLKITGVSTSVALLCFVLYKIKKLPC

MAO-A [4] = assay: Inhibition of MAO Activity Ex-vivo: Acute Treatment, brain, MAO-A; format: in vivo, rat (male Sprague-Dawley derived); details: rat, ip or po, 2 hours after dosing
MAO-A [5] = assay: Inhibition of MAO Activity Ex-vivo: Acute Treatment, liver, MAO-A; format: in vivo, rat (male Sprague-Dawley derived); details: rat, ip or po, 2 hours after dosing
Protocol: (§1) These experiments were performed essentially according to the protocol of K. F. Tipton and M. B. H. Youdim in CIBA Symposium No. 39, Editors: G. E. W. Wolstenholme and J. Knight, Elsevier, Amsterdam, 1976, pp. 393-403. The MAO enzyme source was a homogenate of rat brain in 0.3M sucrose which was centrifuged at 600 g for 15 minutes. The supernatant was diluted appropriately in 0.05M phosphate buffer and preincubated with serial dilutions of compounds of interest which are listed below for 20 minutes at 37° C. ^14 C-labeled substrates (2-phenylethylamine, hereinafter PEA; 5-hydroxytryptamine, hereinafter 5-HT) were then added and the incubation continued for a further 20 minutes (PEA) or 30-45 minutes (5-HT). Substrate concentrations used were 20 μM (PEA) or 1 mM (5-HT). In the case of PEA the enzyme concentration was chosen so that not more than 10% of the substrate was metabolized during the course of the reaction. The reaction was then stopped by the addition of tranylcypromine (to final concentration of 1 mM) and the incubate filtered over a small column of Amberlite CG-50; buffered to pH 6.3. The column was washed with 1.5 ml water, the eluates pooled and the radioactive content determined by liquid scintillation spectrometry. Since the amine substrates are totally retained on the column, radioactivity in the eluate indicates the production of neutral and acidic metabolites formed as a result of MAO activity. Activity of MAO in the sample was expressed as a percentage of control activity in the absence of inhibitors after subtraction of appropriate blank values. The activity determined using PEA as a substrate is referred to as MAO B activity, and that determined using 5-HT as a substrate is referred to as MAO A activity.
(§2) Rats (male Sprague-Dawley derived) weighing 250±20 g were treated with the desired compound by intraperitoneal injection (ip) or oral gavage (po) and decapitated 2 hours later. Groups of three rats were used for each dose level of the compound and MAO activity was determined in the brain and liver using the general technique described above. The amount of protein in each incubation was determined using the Folin-Lowry method, and enzyme activity was calculated as nmol substrate metabolized per hour incubation for each mg protein. Activity of MAO in tissues from animals treated with inhibitors was expressed as a percentage of the enzyme activity in a group of control animals which were administered the vehicle alone (water in the case of oral gavage, or 0.9% saline in the case of intraperitoneal injection) and killed as above.

MAO-B [6] = assay: Inhibition of MAO Activity Ex-vivo: Acute Treatment, liver, MAO-B; format: in vivo, rat (male Sprague-Dawley derived); details: for ED-50 LIVER MAO-B: rat, ip or po, 2 hours after dosing; for LIVER MAO-A/MAO-B (measure of selectivity): ratio of ED-50 values, rat liver, ex vivo
Protocol: as §1, §2

MAO-B [7] = assay: Inhibition of MAO Activity Ex-vivo: Acute Treatment, brain, MAO-B; format: in vivo, rat (male Sprague-Dawley derived); details: for ED-50 BRAIN MAO-B: rat, ip or po, 2 hours after dosing; for BRAIN MAO-A/MAO-B (measure of selectivity): ratio of ED-50 values, rat brain, ex vivo
Parkinson's patients = details: with L-Dopa (and decarboxylase inhibitor); cited from earlier work
[8] = at doses causing nearly complete inhibition of MAO-B; Elsworth et al.; cited from earlier work
[9] = ratio IC50 MAO-A / IC50 MAO-B, rat brain homogenate

| SMILES | IC50 (MAO-B [2]; rat brain homogenate) | Selectivity MAO-A/MAO-B (in vitro IC50) (MAO-B [2]; [9]) | IC50 (MAO-A [3]) | ED-50 BRAIN MAO-A (MAO-A [4]) | ED-50 LIVER MAO-A (MAO-A [5]) | ED-50 LIVER MAO-B (MAO-B [6]) | LIVER MAO-A/MAO-B (measure of selectivity) (MAO-B [6]) | ED-50 BRAIN MAO-B (MAO-B [7]) | BRAIN MAO-A/MAO-B (measure of selectivity) (MAO-B [7]) | also measured |
| --- | --- | --- | --- | --- | --- | --- | --- | --- | --- | --- |
| NCCc1ccc(O)cc1 [Tyramine, reference compound] |  |  |  |  |  |  |  |  |  | effect of tyramine alone on blood pressure (in words) ([1]; tyramine alone, oral, 5, 10 and 20 mg/kg): caused increase of blood pressure |
| C#CCNC1CCc2c(F)cccc21.Cl (single isomer, unassigned; (+)) [(+)-4-F, (+)-4-Fluoro-N-propargyl-1-aminoindan hydrochloride] | 5.2 nM | 65 | 340 nM | > 1.0 mg/kg | > 1.0 mg/kg | 0.17 mg/kg | > 5.9 | 0.33 mg/kg | > 3 | Potentiation of blood pressure response to tyramine [1]: 1.55 fold |
| C#CCNC1CCc2ccc(F)cc21 (centres unmarked) [Example 6-F, 6-Fluoro-1-propargylaminoindan] | 6.2 nM | 645 | 4000 nM | 22 mg/kg |  |  |  | 0.13 mg/kg | 170 |  |
| C#CCNC1CCc2cc(F)ccc21.Cl (single isomer, unassigned; (+)) [(+)-5-F, (+)-5-Fluoro-N-propargyl-1-aminoindan hydrochloride] | 5.7 nM | 24 | 140 nM | > 0.1 mg/kg | > 0.1 mg/kg | 0.07 mg/kg | > 1.4 | 0.07 mg/kg | > 1.4 | Potentiation of blood pressure response to tyramine [1]: 2.25 fold |
| C#CCNC1CCc2ccc(Cl)cc21.Cl (centres unmarked) [Example 6-Cl, 6-Chloro-N-propargyl-1-aminoindan hydrochloride] | 7.7 nM | 896 | 6900 nM | 10 mg/kg |  |  |  | 1.7 mg/kg | 5.8 |  |
| C#CCNC1CCc2c(F)cc(F)cc21 (single isomer, unassigned; (+)) [(+)-4,6-Difluoro] | 500 nM | 2 | 800 nM | 2.9 mg/kg |  |  |  | 3.7 mg/kg | 1 |  |
| C#CCNC1CCc2ccccc21 (centres unmarked) [H, N-propargyl-1-aminoindan, reference compound] |  |  |  | 1.2 mg/kg | 5 mg/kg | 0.06 mg/kg |  | 0.07 mg/kg |  |  |
| C#CCNC1CCc2cc(F)ccc21.Cl (centres unmarked) [Example 5-F, 5-Fluoro-N-propargyl-1-aminoindan hydrochloride] | 6 nM | 116 | 700 nM | 2.3 mg/kg | 2.2 mg/kg | 0.06 mg/kg | 36.7 | 0.4 mg/kg | 6 |  |
| C#CCN(C)[C@H](C)Cc1ccccc1 [(-)-deprenyl] |  |  |  |  |  |  |  |  |  | clinical effect on addition to L-Dopa treatment (in words) (Parkinson's patients): improvements in akinesia and overall functional capacity as well as the elimination of "on-off" type fluctuations; also recorded: enhances and prolongs the effect of L-Dopa; "cheese effect" of (-)-deprenyl (in words) [8]: not causing the "cheese effect" |
| C#CCNC1CCc2ccc(F)cc21.Cl (single isomer, unassigned; (+)) [(+)-6-F, (+)-6-Fluoro-N-propargyl-1-aminoindan hydrochloride] | 0.22 nM |  | 2800 nM |  | 5.2 mg/kg |  | 40 |  |  | Potentiation of blood pressure response to tyramine [1]: 1.2 fold; tyramine potentiating effect (in words) ([1]; rat, 5 mg/kg oral, listed as (+)-6-F-N-propargyl-1-aminoindan, hydrochloride, 5 mg/kg): lowest potentiating effect as compared to the (+)-5-F and (+)-4-F derivatives; also recorded: does not cause significant potentiation of tyramine; also recorded: a dose 35 times higher results practically in no tyramine potentiation; Selectivity MAO-A/MAO-B (in vitro IC50) (MAO-B [2]): 1244; MAO-B selectivity in vitro (in words) (MAO-B [2]; in vitro): much more selective than the parent non-fluorinated compound and more selective than the other fluorinated derivatives; ED-50 BRAIN MAO-A (MAO-A [4]; hydrochloride, 120 min): 21.3 mg/kg; ED-50 LIVER MAO-B (MAO-B [6]; hydrochloride, 120 min): 0.13 mg/kg; ED-50 BRAIN MAO-B (MAO-B [7]; hydrochloride, 120 min): 0.14 mg/kg; ED-50 BRAIN MAO-B (MAO-B [7]; listed as (+)-6-F-N-propargyl-1-aminoindan, hydrochloride, 120 min): 0.14 mg/kg; BRAIN MAO-A/MAO-B (measure of selectivity) (MAO-B [7]; hydrochloride): 152 |
| C#CCNC1CCc2ccc(F)cc21.Cl (single isomer, unassigned; (-)) [(-)-6-F, (-)-6-Fluoro-N-propargyl-1-aminoindan hydrochloride] | 12000 nM |  | 40000 nM |  |  |  |  |  |  | Selectivity MAO-A/MAO-B (in vitro IC50) (MAO-B [2]; ratio IC50 MAO-A / IC50 MAO-B, rat brain homogenate, hydrochloride): 3; ED-50 BRAIN MAO-A (MAO-A [4]; hydrochloride, 120 min): 23 mg/kg; ED-50 LIVER MAO-B (MAO-B [6]; hydrochloride, 120 min): < 0.5 mg/kg; ED-50 BRAIN MAO-B (MAO-B [7]; hydrochloride, 120 min): 0.45 mg/kg; BRAIN MAO-A/MAO-B (measure of selectivity) (MAO-B [7]; hydrochloride): 51 |
| C#CCNC1CCc2c(F)cccc21.Cl (centres unmarked) [Example 4-F, 4-Fluoro-N-propargyl-1-aminoindan hydrochloride] | 5.8 nM | 86 | 500 nM | 1.4 mg/kg | 2.4 mg/kg | 0.13 mg/kg | 18.5 | 0.22 mg/kg | 6 |  |
